Measurements reported in patent US20180116988A1, “METHODS OF PREVENTING AND TREATING AUTOIMMUNITY” (THE REGENTS OF THE UNIVERSITY OF COLORADO a body corporate, priority 2015, published 2018).
Read-outs that look alike come from different tables or passages of the source.

How the values were obtained:
[1] = Glucose control in T1D patients treated with methyldopa over 3 months; format: in vivo, human
Text: (§1) Human leukocyte antigen (HLA) alleles confer significant genetic risk for type 1 diabetes (T1D) with recent studies implicating DQ8 in its pathogenesis, and DQ8 antigen presentation can be inhibited with methyldopa in animal models. In this pilot study, the inventors evaluated methyldopa treatment in 10 DQ8 positive human subjects with T1D, ages 18-46 years (mean 27) with less than 2 years of diabetes duration (mean 3 months). This was an open label phase 1b dose escalation study.

DR4 = DR4 T cell response in T1D patients treated with methyldopa; format: in vivo, human; conditions: T1D subjects treated with varying doses of methyldopa
Text: as §1

DQ8 = target: T1, DQ8 (Homo sapiens, UniProt P01909+P01920, A209T/A45G/C70Q/D89A/E183D/E77G/F237L/G63E/H199R/I129T/K197E/L178F/L74F/L98V/N214S/Q57E/Q76R/S185I/S97I/T49S/V73L/Y58L); assay: DQ8-stimulated IL-2 T cell response in T1D patients treated with methyldopa (open label phase 1b dose escalation study); format: in vivo; conditions: for reduction in DQ8-stimulated IL-2 T cell response: DQ8 positive T1D subjects
T1 construct: endogenous in cells; host or cells: blood cells of DQ8-positive human T1D subjects treated with methyldopa
T1 sequence (P01920 33-261 A45G/Y58L/E77G/D89A/H199R/N214S, other chains not shown): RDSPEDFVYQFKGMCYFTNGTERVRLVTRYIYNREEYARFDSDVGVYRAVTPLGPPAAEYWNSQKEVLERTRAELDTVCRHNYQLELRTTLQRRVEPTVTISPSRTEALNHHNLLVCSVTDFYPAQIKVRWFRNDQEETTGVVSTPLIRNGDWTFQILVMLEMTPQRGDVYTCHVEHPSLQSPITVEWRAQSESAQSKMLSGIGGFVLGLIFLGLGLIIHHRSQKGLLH
Text: as §1

[2] = design: species or system human; conditions: in vivo
Text: as §1

DQ8-stimulated IL-2 T cell response after stopping therapy (DQ8; 6 weeks after stopping therapy): returned to normal
reduction in DQ8-stimulated IL-2 T cell response (DQ8; at 1 week of dose escalation): 32%
reduction in DQ8-stimulated IL-2 T cell response (DQ8; at 3 weeks of dose escalation): 39%
Structure (SMILES): C[C@](N)(Cc1ccc(O)c(O)c1)C(=O)O [methyldopa, α-Methyl-3,4-dihydroxyphenylalanine]
glycemic control [1]: good glycemic control
DR4 T cell responses (DR4): minimally effected
subjects tolerating dosage ([2]; human): 9/10
serious adverse events (hypotension, DKA, or hypoglycemia) [2]: No serious adverse events
subjects tolerating dosage [2]: All subjects tolerated
